Earlier results as cited in US20050147632A1, “Virally infected plants as a source of insect reppellants/attractents” (priority 2002, published 2005).

Test system: neighboring plants
Conditions: Shulaev et al., Nature 385: 718-721, 1997

Structure (SMILES): COC(=O)c1ccccc1O [methyl salicylate]
- induction of plant pathogen resistance: capable of inducing plant pathogen resistance in neighboring plants
